According to publication PMC6222871, “Suppression of Hepatitis C Virus Genome Replication and Particle Production by a Novel Diacylglycerol Acyltransferases Inhibitor” (Molecules : A Journal of Synthetic Chemistry and Natural …, 2018):

Assays:
[1] = test system: HCV genotype 2a (Huh7.5-J6/JFH1); assay: HCV particle production: infectivity of supernatant on naive Huh7.5 cells by real-time RT-PCR; assay type: cell-based, hepatitis C virus; conditions: for effect on HCV particle production: 10 μM; for EC50: Hepatitis C virus, read-out: EC50 on HCV particle production
Protocol: A922500, a commercially available DGAT-1-specific inhibitor was used as a positive control [10]. […] Therefore, we decided to examine effects of these twelve DGAT inhibitors on HCV particle production as well as RNA genome replication in parallel. For this purpose, we transfected Huh7.5 cells with in vitro-transcribed genotype 2a HCV RNAs (Huh7.5-J6/JFH1) [16] and treated them with each DGAT inhibitor for 6 and 72 h at 10 μM. HCV genome replication as well as host GAPDH RNA levels was quantitated by a real-time RT-PCR analysis. For assessment of HCV particle production, we harvested and filtered the supernatant from Huh7.5-J6/JFH1 cells treated with DGAT inhibitors and incubated the supernatant with naïve huh7.5 cells for 72 h. Then, infectivity was measured by a real-time RT-PCR analysis.
Huh7.5-J6/JFH-1 cells were seeded into 6-well plates at a density of 3 × 10^5 cells per well with DMEM containing 10% FBS. […] Total RNAs were extracted from treated cells and virus-containing media were harvested at each time point. Naïve Huh7.5 cells were infected with these virus-containing media after concentration with centricons.

recombinant DGAT-2 = test system: recombinant DGAT-2; set-up: method as in PMID 23242135; conditions: cited from earlier work
HNF4α = HNF4α western blot in Huh7.5-J6/JFH1 cells; assay type: cell-based; conditions: up to 10 μM, 72 h
Text: (§1) Since DGATs play an important role in maintaining liver-likeness in hepatocytes, the antiviral effect of 10j might be due to mere loss of this liver-specific character. […] In addition, HNF4α was also reported to be reduced in DGAT1-silenced cell lines. Therefore, we wished to test effects of 10j on HNF4α.

Huh7.5 cells = assay: TG quantification assay in Huh7.5 cells; assay type: cell-based; conditions: 8 μM, 72 h
Protocol: Cells were washed with cold PBS, suspended, and homogenized in 1 mL of 5% NP-40/ddH2O solution. Then, homogenized cells were slowly heated to 90 °C for 5 min or until the NP-40 becomes cloudy, then cooled down to room temperature. Previous step was repeated to solubilize all TG. Cells were centrifuged for 2 min at top speed using a microcentrifuge to remove any insoluble material. Samples were diluted 10-fold with ddH2O before proceeding with the assay. […] Samples were added with 50 μL of reaction mix into each well and incubated at room temperature for 60 min while protected from light. Fluorescence was measured by using a fluorometric reader with Ex/Em = 535/590 nm. The amount of TG from standard sample was calculated using the following equation: Ts=Corrected absorbance−(y−intercept)/slope The amount of intracellular TG was calculated using the following equation: Concentration=Ts/Sv*D where the Ts is the amount of TG from standard curve and Sv is the volume of sample added to sample wells and D is the sample dilution factor.

[2] = set-up: method as in PMID 23141914; conditions: cited from earlier work
[3] = test system: HCV genotype 2a (Huh7.5-J6/JFH1); assay: microbe, parasite or virus in culture; conditions: for EC50: Hepatitis C virus
Text: We previously synthesized and characterized twelve DGAT inhibitors with a different DGAT specificity. […] A922500, a commercially available DGAT-1-specific inhibitor was used as a positive control. In spite of a wealth of knowledge on an essential role of DGAT-1 in the HCV particle assembly and production, less attention has been paid to potential functions of DGATs in other steps of the viral life cycle. Therefore, we decided to examine effects of these twelve DGAT inhibitors on HCV particle production as well as RNA genome replication in parallel. For this purpose, we transfected Huh7.5 cells with in vitro-transcribed genotype 2a HCV RNAs (Huh7.5-J6/JFH1) and treated them with each DGAT inhibitor for 6 and 72 h at 10 μM. HCV genome replication as well as host GAPDH RNA levels was quantitated by a real-time RT-PCR analysis. For assessment of HCV particle production, we harvested and filtered the supernatant from Huh7.5-J6/JFH1 cells treated with DGAT inhibitors and incubated the supernatant with naïve huh7.5 cells for 72 h. Then, infectivity was measured by a real-time RT-PCR analysis.
Quantitative real-time RT-PCR analysis to measure levels of HCV RNA and GAPDH was conducted as previously described. The cDNA synthesis and reverse transcription of miR-122 were performed by using Taqman quantitative RT-PCR (qRT-PCR) analysis. Taqmanq RT-PCR components including TaqMan miR122 probe, endogenous control U6 probe, TaqMan® MicroRNA reverse transcription Kit and TaqMan® universal master mix II were purchased from Thermo Fisher Scientific (Waltham, MA, USA)
Huh7.5-J6/JFH-1 cells were seeded into 6-well plates at a density of 3 × 10^5 cells per well with DMEM containing 10% FBS. After 24 h, they are incubated with either DMSO, increasing concentrations of 10j for 3, 6, 12, 24, 48, and 72 h, or increasing concentrations of A922500 for 6, 12, 24, 48, and 72 h. Total RNAs were extracted from treated cells and virus-containing media were harvested at each time point. Naïve Huh7.5 cells were infected with these virus-containing media after concentration with centricons. Total RNAs were extracted from Huh7.5 cells infected with virus-containing media. qRT-PCR analysis was performed to measure effect of 10j on HCV replication and virus particle production.

[4] = test system: HCV NS5A (Huh7.5-Bart79I, genotype 1b); assay: western blot of HCV NS5A protein in Huh7.5-Bart79I cells; assay type: cell-based, hepatitis C virus
Protocol: Due to the tight coupling of viral genome replication to its protein expression, inhibition of viral RNA genome replication leads to a subsequent reduction of viral protein expression.
(A) Dose-dependent western blot analysis of Huh7.5-J6/JFH1 cells treated with increasing concentrations of 10j for 72 h by measuring protein expression levels of HCV NS3 relative to the β-actin. Daclatasvir, an NS5A inhibitor was used as a positive control. (B) Time-dependent western blot analysis of J6/JFH1 RNA-transfected Huh7.5 cells treated with 8 μM of 10j for increasing periods of time analyzed by measuring protein expression levels of HCV NS3 relative to the β-actin. (C,D) Same experiments were performed as in (A,B) to study effects of 10j on the expression levels of the NS5A protein of Huh7.5-Bart79I cells in a dose- as well as time-dependent manners.
Western blot analysis of Huh7.5-J6/JFH1 or Bart79I cells treated with 10j was conducted as previously described. Relative amounts of HNF4α proteins were quantified by using an HNF4α mouse monoclonal antibody (M04), clone 4E2 (Abnova) with the dilution of 1:1000.

miR122 = miR122 RT-PCR in Huh7.5-J6/JFH1 cells; assay type: cell-based; conditions: up to 8 μM, 72 h
Text: as §1

HepG2 cells = test system: HepG2 cells; set-up: method as in PMID 23242135; conditions: [14C] glycerol as substrate; cited from earlier work

**Q.** Which results are given for O=C(NCc1ccco1)c1ccc2[nH]c(COc3ccc(C45CC6CC(CC(C6)C4)C5)cc3)nc2c1 [10j, 2-{[4-(adamant-1yl)phenoxy]methyl)-N-(furan-2-ylmethyl)-1H-benzo[d]imidazole-5-carboxamide]?
**A.** effect on HCV particle production ([1]; 6 h (Figure 1B)): able to block HCV particle production; effect on HCV particle production ([1]; 72 h (Figure 1D)): able to block both viral RNA genome replication and particle production; EC50 ([1]; Huh7.5, 3 h): 1 µM; EC50 ([1]; Huh7.5, 6 h): 1.7 µM; EC50 ([1]; Huh7.5, 12 h): 0.4 µM; EC50 ([1]; Huh7.5, 24 h): 0.4 µM; EC50 ([1]; Huh7.5, 48 h): 0.7 µM; EC50 ([1]; Huh7.5, 72 h): 0.2 µM; IC50 (recombinant DGAT-2): 17.3 µM; expression levels of HNF4α (HNF4α): remained unaltered; reduction of endogenous level of TG (Huh7.5 cells): 83%; fat tissues ([2]; mice fed with high-fat diet, versus control mice): significant decrease; high-density lipoprotein-cholesterol ([2]; mice): significant increase; total TG, total cholesterol and low-density lipoprotein cholesterol in the blood ([2]; mice): decreased levels; T1/2, time required for reducing the viral RNAs by half ([3]; 8 μM, genotype 2a): 35.8 h; effect on HCV genome replication ([3]; 10 μM, 72 h (Figure 1C)): able to block both viral RNA genome replication and particle production; EC50 ([3]; 3 h, read-out: EC50 on HCV genome replication): > 10 µM; EC50 ([3]; 6 h, read-out: EC50 on HCV genome replication): > 10 µM; EC50 ([3]; 12 h, read-out: EC50 on HCV genome replication): 8.5 µM; EC50 ([3]; 24 h, read-out: EC50 on HCV genome replication): 3 µM; EC50 ([3]; 48 h, read-out: EC50 on HCV genome replication): 3.6 µM; EC50 ([3]; 72 h, read-out: EC50 on HCV genome replication): 2.7 µM; EC50 ([3]; GETYPE2A, 72 h, read-out: EC50 HCV RNA, reporter-free infectious clone): 1.6 µM; EC50 ([3]; GETYPE2A, read-out: EC50 values required for inhibition of the HCV genome replication (summary)): 1 to 2 µM; time required for reducing 50% of HCV protein expression (T1/2) ([4]; 10 μM of 10j, 8 μM (figure legend)): 37.4 h; EC50 ([4]; Hepatitis C virus, NS5A, read-out: concentration required for reducing 50% of HCV protein expression (EC50)): 4.1 µM; expression levels of miR122 (miR122): increased levels of miR122; TG % (10 μM in HepG2), relative [14C] triglyceride percentage (HepG2 cells): 45.0%
